Data on three compounds can be found in the NIST ThermoML archive (doi:10.1021/je7005727).

The conditions of this series: 101.33 kPa, Liquid; for speed of sound: Sing-around technique in a fixed-path interferometer.

Numbers after ± are expanded uncertainties.

A word on the mass density: it is the mass of a sample divided by its volume. As a reminder, the speed of sound is how fast a sound wave travels through the sample. `CCCCO` [butan-1-ol]: the mass density is reported as 809.644 ± 0.46 kg/m3 (293.15 K), 805.842 ± 0.47 kg/m3 (298.15 K) and 801.995 ± 0.47 kg/m3 (303.15 K). The speed of sound is listed as 1256.7 ± 0.82 m/s (293.15 K), 1239.2 ± 0.81 m/s (298.15 K) and 1222.7 ± 0.81 m/s (303.15 K).

Consider `CCCCCCO` [hexan-1-ol], for which the speed of sound runs as follows: (293.15 K) 1320.3 ± 1.2 m/s; (298.15 K) 1303 ± 1.2 m/s; (303.15 K) 1286.3 ± 1.2 m/s.

On to `CCCCCO` [pentan-1-ol], for which the mass density reads like this: (293.15 K) 814.738 ± 0.76 kg/m3; (298.15 K) 811.067 ± 0.77 kg/m3; (303.15 K) 807.366 ± 0.78 kg/m3. For the same compound, the speed of sound by setting is: (293.15 K) 1292.5 ± 1.2 m/s; (298.15 K) 1275.1 ± 1.2 m/s; (303.15 K) 1258.5 ± 1.2 m/s.
